According to article PMC9090415, “Discovery of small molecule inhibitors of Plasmodium falciparum apicoplast DNA polymerase” (Journal of Enzyme Inhibition and Medicinal Chemistry, 2022):

Target: P. falciparum apicoplast DNA polymerase (Pf-apPOL) (Plasmodium falciparum, UniProt Q8ILY1)
Assay: Fluorescence-based high-throughput DNA polymerase assay (molecular beacon), primary screen and dose-response
Type: biochemical
Experimental: The HT assay employs a molecular beacon, a stem-loop DNA template with a Cy3 dye and the Black Hole Quencher on the 3′ and 5′ ends of the DNA, respectively. Pf-apPOL concentration is based on a calculated absorptivity of ε280 = 56750 M^−1 cm^−1. Reactions were carried out at 25 °C, using Corning 3575 […] (well-volume, 20 µL). Assays testing for compound inhibition composed of reaction buffer (pH 7.9 in 50 mM potassium acetate, 20 mM Tris-acetate and 10 mM magnesium acetate), Pf-apPOL (20 nM), DNA substrate (20 nM), dNTPs (6 µM), and compound (10 µM in DMSO). The DNA and nucleotide substrates (dNTPs) were at concentrations of 20 nM and 6 µM, respectively, in the assay. Pf-apPOL was incubated in the reaction buffer with dNTPs and the compound of interest (10 µM, in the assay) at 25 °C for 10 min. The DNA substrate was then added and the reaction was allowed to proceed for 90 min at 25 °C.
Each assay plate contained 16 negative controls (no Pf-apPOL, DMSO present) and 16 positive controls (Pf-apPOL present, no DMSO). The fluorescence of each well was determined using a BioTek Synergy Neo fluorescence plate reader using excitation and emission wavelengths of 555 and 570 nm, respectively.
In the above, Min is the average of fluorescence emission of the negative controls (substrate only), Max the average fluorescence emission from the positive controls (enzyme + substrate), and Test the emission from the assays in the presence of compounds (enzyme + compound + substrates). […] […] The IC50 of each compound was determined using Equation (2): (2) IC50= Vmax/(1+ (I/IC50)^n)
In the above, n measures cooperativity, with n > 1 indicating synergistic binding of more than a single molecule of the compound.
To identify apPOL inhibitors we utilised our previously developed high-throughput DNA polymerase assay. The HT assay is based on a molecular beacon DNA template that forms a stem-loop with a Cy3 dye and the Black Hole Quencher on the 3′ and 5′ ends of the DNA, respectively. DNA polymerase activity extends an annealed primer through the stem region, displacing the fluorophore from the quencher, thereby increasing its fluorescence (Figure 1(A)). The assay accurately recapitulates the kinetic behaviour of apPOL, as measured through more conventional low-throughput gel-based assays. The Z′ factor for the assay described here was 0.9 across all plates (data not shown).
Figure 1. High-throughput screening. (A) The fluorescent-based DNA polymerase assay used to screen the compound libraries. The DNA template strand is a hairpin loop with a primer annealed to the loop. The 3’ end of the primer is 11 bases away from the 6 bp duplex. Strand displacement activity of the DNA polymerase separates the Cy3 dye from the Black hole quencher leading to an increase in fluorescent signal. (B) The high-throughput assay workflow. The DNA polymerase is incubated with […] compound for 10 min prior to addition of the hairpin substrate. The reaction is quenched at 3 different time points and the fluorescent signal is measured and % inhibition is determined using the provided equation.

Sequence of P. falciparum apicoplast DNA polymerase (Pf-apPOL) (Q8ILY1 entry or part of it): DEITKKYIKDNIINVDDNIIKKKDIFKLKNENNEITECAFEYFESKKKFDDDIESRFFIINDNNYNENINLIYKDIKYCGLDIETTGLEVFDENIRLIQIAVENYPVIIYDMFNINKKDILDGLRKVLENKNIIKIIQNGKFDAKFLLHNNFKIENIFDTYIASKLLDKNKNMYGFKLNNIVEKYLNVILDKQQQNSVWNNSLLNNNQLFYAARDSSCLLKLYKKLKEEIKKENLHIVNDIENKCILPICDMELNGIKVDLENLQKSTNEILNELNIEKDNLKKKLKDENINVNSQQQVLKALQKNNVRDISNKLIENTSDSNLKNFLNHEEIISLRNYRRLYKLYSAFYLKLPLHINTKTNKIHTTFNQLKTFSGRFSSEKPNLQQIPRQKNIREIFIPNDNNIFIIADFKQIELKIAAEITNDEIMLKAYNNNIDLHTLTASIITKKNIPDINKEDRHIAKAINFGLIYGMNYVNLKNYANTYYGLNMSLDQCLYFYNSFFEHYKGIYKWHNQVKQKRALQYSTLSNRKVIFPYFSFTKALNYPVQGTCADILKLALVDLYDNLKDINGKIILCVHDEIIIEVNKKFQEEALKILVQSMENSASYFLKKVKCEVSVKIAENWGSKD

`COc1ccc(-c2occ(C(=O)O)c2C(=O)O)cc1` [KU0021536] was tested, and the “% inhibition Apo pol 10'” value (DRC-1; concentration 2.5; 10') was 12.66%, the “% inhibition Apol 90'” value (DRC-1; concentration 2.5; 90') was 6.208% and the “% inhibition apPOL 180'” value (DRC-1; concentration 2.5; 180') was 0.2787%. For the same compound, the “% inhibition Apo pol 10'” value (DRC-1; concentration 5; 10') was 21.9361%, the “% inhibition Apol 90'” value (DRC-1; concentration 5; 90') was 18.5169% and the “% inhibition apPOL 180'” value (DRC-1; concentration 5; 180') was 12.9539%. The “% inhibition Apo pol 10'” value (DRC-1; concentration 10; 10') was 43.1098%, the “% inhibition Apol 90'” value (DRC-1; concentration 10; 90') was 39.5848% and the “% inhibition apPOL 180'” value (DRC-1; concentration 10; 180') was 35.5357%. The “% inhibition Apo pol 10'” value (DRC-1; concentration 20; 10') was 66.1228%, the “% inhibition Apol 90'” value (DRC-1; concentration 20; 90') was 63.2397% and the “% inhibition apPOL 180'” value (DRC-1; concentration 20; 180') was 62.8921%. The “% inhibition Apo pol 10'” value (DRC-1; concentration 40; 10') was 86.5866%, the “% inhibition Apol 90'” value (DRC-1; concentration 40; 90') was 84.6266% and the “% inhibition apPOL 180'” value (DRC-1; concentration 40; 180') was 85.4203%. The “% inhibition Apo pol 10'” value (DRC-1; concentration 80 (unit not given); 10') was 93.5468%, the “% inhibition Apol 90'” value (DRC-1; concentration 80; 90') was 92.3135% and the “% inhibition apPOL 180'” value (DRC-1; concentration 80; 180') was 92.8082%. The “% inhibition Apo pol 5'” value (DRC-2; 5'; concentration 40) was 50%, the “% inhibition Apol 40'” value (DRC-2; 40'; concentration 10) was 48% and the “% inhibition ApPOL 90'” value (DRC-2; 90'; concentration 10) was 50%. For the same compound, the “% inhibition ApPOL 90'” value (DRC-2; 90'; concentration 80) was 77%, the “% inhibition apPOL 180'” value (DRC-2; 180'; concentration 10) was 48% and the “% inhibition apPOL 180'” value (DRC-2; 180'; concentration 40) was 77%. The “% inhibition Apo pol 5'” value (DRC-2; concentration 2.5; 5') was 7%, the “% inhibition Apol 40'” value (DRC-2; concentration 2.5; 40') was 17% and the “% inhibition ApPOL 90'” value (DRC-2; concentration 2.5; 90') was 16%. The “% inhibition apPOL 180'” value (DRC-2; concentration 2.5; 180') was 10%, the “% inhibition Apo pol 5'” value (DRC-2; concentration 5; 5') was 21% and the “% inhibition Apol 40'” value (DRC-2; concentration 5; 40') was 30%. The “% inhibition ApPOL 90'” value (DRC-2; concentration 5; 90') was 32%, the “% inhibition apPOL 180'” value (DRC-2; concentration 5; 180') was 27% and the “% inhibition Apo pol 5'” value (DRC-2; concentration 10; 5') was 34%. The “% inhibition Apol 40'” value (DRC-2; concentration 10; 40') was 48%, the “% inhibition ApPOL 90'” value (DRC-2; concentration 10; 90') was 50% and the “% inhibition apPOL 180'” value (DRC-2; concentration 10; 180') was 48%. The “% inhibition Apo pol 5'” value (DRC-2; concentration 20; 5') was 43%, the “% inhibition Apol 40'” value (DRC-2; concentration 20; 40') was 62% and the “% inhibition ApPOL 90'” value (DRC-2; concentration 20; 90') was 66%. For the same compound, the “% inhibition apPOL 180'” value (DRC-2; concentration 20; 180') was 67%, the “% inhibition Apo pol 5'” value (DRC-2; concentration 40; 5') was 50% and the “% inhibition Apol 40'” value (DRC-2; concentration 40; 40') was 70%. The “% inhibition ApPOL 90'” value (DRC-2; concentration 40; 90') was 75%, the “% inhibition apPOL 180'” value (DRC-2; concentration 40; 180') was 77% and the “% inhibition Apo pol 5'” value (DRC-2; concentration 80; 5') was 51%. For the same compound, the “% inhibition Apol 40'” value (DRC-2; concentration 80; 40') was 74%, the “% inhibition ApPOL 90'” value (DRC-2; concentration 80; 90') was 77% and the “% inhibition apPOL 180'” value (DRC-2; concentration 80; 180') was 80%. For the same compound, the “DNA Pol” value (primary screen value of the 186 hits; unit not given; 90 min, 10 µM) was 29 and the “DNA Pol” value (primary screen value; head prints only 'DNA Pol'; 90 min, 10 µM) was 29.
